Test results as given in ChEMBL document CHEMBL6114949, “Synthesis and physiological effects of new 4-aminophenol derivatives as paracetamol analogues” (Bioorg Med Chem Lett, 2025).
Calls of active or inactive are those of the source. The rule behind the calls is not given here.

Tests used:
Rattus norvegicus [1] = assay: Antinociceptive activity in zymosan-induced rat arthritis model assessed as nociceptive response inhibition at 80 mg/kg, ig administered once daily for 7 days and measured 1 hr post-zymosan challenge on day 7 by Randall-Selitto test (reference value: -34.6%); assay type: functional; conditions: po, 168 h, time 7 day
Rattus norvegicus [2] = assay: Antipyretic activity against LPS-induced polyphasic febrile response in rats assessed as return of body temperature to background value at 80 mg/kg, po treated 40 mins prior to LPS addition and measured after 245 mins; assay type: functional, organism-based; conditions: time 285.0 min
Rattus norvegicus [3] = assay: Antinociceptive activity in zymosan-induced rat model of thermal nociceptive hypersensitivity assessed as nociceptive response inhibition at 80 mg/kg, ig administered once daily for 7 days and measured 1 hr post-zymosan challenge on day 7 by hot-plate test (reference value: -42.4%); assay type: functional; conditions: po, 168 h, time 7 day
Rattus norvegicus [4] = assay: Antipyretic activity against LPS-induced polyphasic febrile response in rats assessed as change in core body temperature at 80 mg/kg, po treated 40 mins prior to LPS addition and measured after 10 mins during phase 1 (reference value: 0.85 deg C); assay type: functional, organism-based; conditions: time 50.0 min
[5] = Hepatotoxicity in zymosan-induced rat arthritis model assessed as change in hepatocyte karyoplasm at 180 mg/kg, ig administered once daily for 7 days by hematoxylin-eosin staining based histological analysis; assay type: toxicity, organism-based, Liver; conditions: in vivo, po, 168 h, time 7 day
[6] = Hepatotoxicity in zymosan-induced rat arthritis model assessed as change in hepatocyte shape at 180 mg/kg, ig administered once daily for 7 days by hematoxylin-eosin staining based histological analysis; assay type: toxicity, organism-based, Liver; conditions: in vivo, po, 168 h, time 7 day
Rattus norvegicus [7] = assay: Antinociceptive activity in zymosan-induced rat model of thermal nociceptive hypersensitivity assessed as nociceptive response inhibition at 180 mg/kg, ig administered once daily for 7 days and measured 1 hr post-zymosan challenge on day 7 by hot-plate test (reference value: -42.4%); assay type: functional; conditions: po, 168 h, time 7 day
[8] = Hepatotoxicity in zymosan-induced rat arthritis model assessed as change in shape of liver central veins at 180 mg/kg, ig administered once daily for 7 days by hematoxylin-eosin staining based histological analysis; assay type: toxicity, organism-based; conditions: in vivo, po, 168 h, time 7 day
[9] = Hepatotoxicity in zymosan-induced rat arthritis model assessed as disruption of hepatocyte membrane at 180 mg/kg, ig administered once daily for 7 days by hematoxylin-eosin staining based histological analysis; assay type: toxicity, organism-based, Liver; conditions: in vivo, po, 168 h, time 7 day
[10] = Hepatotoxicity in zymosan-induced rat arthritis model assessed as change in hepatocyte nucleus size at 180 mg/kg, ig administered once daily for 7 days by hematoxylin-eosin staining based histological analysis; assay type: toxicity, organism-based, Liver; conditions: in vivo, po, 168 h, time 7 day
Rattus norvegicus [11] = assay: Antipyretic activity against LPS-induced polyphasic febrile response in rats assessed as change in core body temperature at 180 mg/kg, po treated 40 mins prior to LPS addition and measured after 160 mins during phase 1 (reference value: 0.85 deg C); assay type: functional, organism-based; conditions: time 200.0 min
[12] = Hepatotoxicity in zymosan-induced rat arthritis model assessed as appearance of vacuoles in hepatocyte cytoplasm at 180 mg/kg, ig administered once daily for 7 days by hematoxylin-eosin staining based histological analysis; assay type: toxicity, organism-based, Liver; conditions: in vivo, po, 168 h, time 7 day
Rattus norvegicus [13] = assay: Antipyretic activity against LPS-induced polyphasic febrile response in rats assessed as suppression of rise in core body temperature at 180 mg/kg, po treated 40 mins prior to LPS addition and measured after 160 mins relative to control; assay type: functional; conditions: time 200 min, 3.333 h
Rattus norvegicus [14] = assay: Antipyretic activity against LPS-induced polyphasic febrile response in rats assessed as suppression of rise in core body temperature at 180 mg/kg, po treated 40 mins prior to LPS addition and measured after 200 mins; assay type: functional, organism-based; conditions: time 240.0 min
[15] = Hepatotoxicity in zymosan-induced rat arthritis model assessed as effect on general architecture of liver at 180 mg/kg, ig administered once daily for 7 days by hematoxylin-eosin staining based histological analysis; assay type: toxicity, organism-based; conditions: in vivo, po, 168 h, time 7 day
[16] = Hepatotoxicity in zymosan-induced rat arthritis model assessed as effect on beam structure of liver at 180 mg/kg, ig administered once daily for 7 days by hematoxylin-eosin staining based histological analysis; assay type: toxicity, organism-based; conditions: in vivo, po, 168 h, time 7 day
[17] = Hepatotoxicity in zymosan-induced rat arthritis model assessed as effect on sinusoids arrangement at 180 mg/kg, ig administered once daily for 7 days by hematoxylin-eosin staining based histological analysis; assay type: toxicity, organism-based, Liver; conditions: in vivo, po, 168 h, time 7 day
Rattus norvegicus [18] = assay: Antinociceptive activity in zymosan-induced rat arthritis model assessed as nociceptive response inhibition at 180 mg/kg, ig administered once daily for 7 days and measured 1 hr post-zymosan challenge on day 7 by Randall-Selitto test (reference value: -34.6%); assay type: functional; conditions: po, 168 h, time 7 day
[19] = Hepatotoxicity in zymosan-induced rat arthritis model assessed as effect on sinusoids elongation at 180 mg/kg, ig administered once daily for 7 days by hematoxylin-eosin staining based histological analysis; assay type: toxicity, organism-based, Liver; conditions: in vivo, po, 168 h, time 7 day
[20] = Hepatotoxicity in zymosan-induced rat arthritis model assessed as change in shape of liver portal tracts at 180 mg/kg, ig administered once daily for 7 days by hematoxylin-eosin staining based histological analysis; assay type: toxicity, organism-based; conditions: in vivo, po, 168 h, time 7 day
[21] = Hepatotoxicity in zymosan-induced rat arthritis model assessed as change in hepatocyte cytoplasmic appearance at 180 mg/kg, ig administered once daily for 7 days by hematoxylin-eosin staining based histological analysis; assay type: toxicity, organism-based, Liver; conditions: in vivo, po, 168 h, time 7 day
Rattus norvegicus [22] = assay: Antipyretic activity against LPS-induced polyphasic febrile response in rats assessed as suppression of rise in core body temperature at 180 mg/kg, po treated 40 mins prior to LPS addition and measured after 10 mins; assay type: functional, organism-based; conditions: time 50.0 min

With CC(=O)Nc1ccc(O)cc1 [ACETAMINOPHEN] the inhibition in vivo at 80 mg/kg (Rattus norvegicus [1]) was 28.5%, the Activity (Rattus norvegicus [2]) was “Active” and the inhibition in vivo at 80 mg/kg (Rattus norvegicus [3]) was 53%. The ΔTm (Rattus norvegicus [4]) was 0.34 °C.
In the case of CCCCCCCC(=O)Nc1ccc(OCC(=O)NCCO)cc1, the Activity [5] is reported as “Non-toxic”, the Activity [6] is reported as “Non-toxic” and the inhibition in vivo at 180 mg/kg (Rattus norvegicus [7]) is reported as 12.3%. The Activity [8] was “Non-toxic”, the Activity [9] was “Non-toxic” and the Activity [10] was “Non-toxic”. The ΔTm (Rattus norvegicus [11]) was 0.28 °C, the Activity [12] was “Non-toxic” and the “fold change (FC)” value (Rattus norvegicus [13]) was 3. For the same compound, the Activity (Rattus norvegicus [14]) was “Active”, the Activity [15] was “Non-toxic” and the Activity [16] was “Non-toxic”. For the same compound, the Activity [17] was “Non-toxic”, the inhibition in vivo at 180 mg/kg (Rattus norvegicus [18]) was 48.1% and the Activity [19] was “Non-toxic”. The Activity [20] was “Non-toxic”, the Activity [21] was “Non-toxic” and the Activity (Rattus norvegicus [22]) was “Active”.
